Reference: patent publication US9670261B2 (Sanofi, priority 2012, dated 2017)
*1 amine or outer side, *2 acyl side, *3 side chain or, on linkers, in order; H or OH if unused. Where a SMILES comes first, the peptide text is derived from it. Side-chain parts run from the residue outwards. [ ]: non-standard residue; d: D form. The star is where a group is joined. γGlu = O=C(O)[C@H](CCC(=O)[*:2])N[*:1]; Palmitoyl = CCCCCCCCCCCCCCCC(=O)*; Aib = CC(C)(N)C(=O)O

Legend:
[1] = molecular target: T1, human GIP receptor (Homo sapiens, UniProt P48546); experiment: cAMP response (HTRF) of HEK-293 cells stably expressing human GIP receptor; assay type: cell-based; settings: Table 7; cAMP formation; read-out: EC50 hGIP R
T1 construct: expressed in transfected cells
T1 sequence (P48546 22-466): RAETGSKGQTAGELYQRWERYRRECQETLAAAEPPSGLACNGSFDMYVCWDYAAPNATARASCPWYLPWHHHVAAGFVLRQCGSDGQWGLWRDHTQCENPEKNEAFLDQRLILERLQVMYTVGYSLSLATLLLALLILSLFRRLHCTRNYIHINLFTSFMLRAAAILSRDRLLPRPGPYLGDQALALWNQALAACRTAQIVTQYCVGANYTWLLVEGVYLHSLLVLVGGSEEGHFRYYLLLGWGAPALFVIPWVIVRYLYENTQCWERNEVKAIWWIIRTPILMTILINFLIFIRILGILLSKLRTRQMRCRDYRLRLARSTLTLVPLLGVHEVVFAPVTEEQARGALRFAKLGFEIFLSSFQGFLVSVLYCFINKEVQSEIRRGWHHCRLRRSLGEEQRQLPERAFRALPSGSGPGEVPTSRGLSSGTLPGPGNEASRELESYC
Method in brief: (§1)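 After near-confluent growth in DMEM with 10% FBS, cells were washed in Ca/Mg-free PBS, lifted with accutase and diluted to 400000 cells/ml in IBMX (2 mM)-containing HEPES-buffered HBSS with 0.1% BSA. Compounds were applied for 30 minutes at room temperature before homogeneous time-resolved fluorescence quantitation of cAMP.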

[2] = Pharmacokinetic testing in Göttinger minipigs, s.c.; assay type: in vivo; settings: female, minipig, plasma, sc, Mini pigs, 0.1 mg/kg s.c.
Method: Female Göttinger minipigs were dosed 0.1 mg/kg subcutaneously (s.c.). Blood samples were collected after 0.25, 0.5, 1, 2, 4, 8, 24, 32, 48, 56 and 72 hours post application. Plasma samples were analyzed after protein precipitation via liquid chromatography mass spectrometry (LC/MS). PK parameters and half-life were calculated using WinonLin Version 5.2.1 (non-compartment model).

[3] = system: female NMRI-mice; experiment: Automated assessment of 22-hours feed intake in mice; assay type: in vivo
Method: Female NMRI-mice of a body weight between 20 and 30 g were used. Mice were adapted to housing conditions for at least one week and for at least one day single-caged in the assessment equipment, when basal data were recorded simultaneously. On the study day, test product was administered subcutaneously close to the lights-off phase (12 h lights off) and assessment of feed consumption was directly started afterwards. Assessment included continued monitoring over 22 hours, while data are processed as mean over every 30 min. Repetition of this procedure over several days was possible. Restriction of assessment to 22 hours was for practical reasons to allow for reweighing of animals, refilling of feed and water and drug administration between procedures. Results could be assessed as cumulated data over 22 hours or differentiated to 30 min intervals. […] Statistical analyses were performed with Everstat 6.0 by two-way ANOVA on repeated measures and Dunnett's post-hoc analyses. Differences were considered statistically significant at the p<0.05 level. […] Lights-off phase (dark phase) started 4 hours later. […].

[4] = molecular target: T2, human GLP-1 receptor (Homo sapiens, UniProt P43220); experiment: cAMP response (HTRF) of HEK-293 cells stably expressing human GLP-1 receptor; assay type: cell-based; settings: Table 7; cAMP formation; read-out: EC50 hGLP-1 R
T2 construct: expressed in transfected cells
T2 sequence (P43220 24-463): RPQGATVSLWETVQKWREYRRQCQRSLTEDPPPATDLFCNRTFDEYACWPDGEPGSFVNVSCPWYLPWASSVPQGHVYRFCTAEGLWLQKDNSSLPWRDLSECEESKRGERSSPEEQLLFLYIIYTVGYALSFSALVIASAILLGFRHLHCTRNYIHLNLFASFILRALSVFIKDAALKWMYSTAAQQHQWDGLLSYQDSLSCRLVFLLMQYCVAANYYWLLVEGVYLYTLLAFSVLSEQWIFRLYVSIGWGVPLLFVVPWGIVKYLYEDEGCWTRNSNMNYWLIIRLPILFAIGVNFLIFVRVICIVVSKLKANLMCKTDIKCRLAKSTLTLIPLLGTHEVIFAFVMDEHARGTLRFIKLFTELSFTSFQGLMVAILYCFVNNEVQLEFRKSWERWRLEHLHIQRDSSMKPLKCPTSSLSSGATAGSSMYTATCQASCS
Method in brief: as §1

[5] = Chemical stability in solution, 7 days at 25° C. (% remaining peptide); settings: % remaining peptide after 7 days at 25° C.
Method: After that time course, the sample was centrifuged for 20 min at 4000 rpm and the supernatant was analysed with HPLC-UV. For determination of the amount of the remaining peptide, the peak areas of the target compound at t0 and t7 were compared, resulting in “% remaining peptide”, following the equation % remaining peptide=[(peak area peptide t7)×100]/peak area peptide t0.
The chemical stability is expressed as “% remaining peptide”.

[6] = system: female NMRI-mice; experiment: Gastric emptying and intestinal passage in mice; assay type: in vivo; settings: versus vehicle control
Method: Female NMRI-mice of a body weight between 20 and 30 g were used. Mice were adapted to housing conditions for at least one week. Mice were overnight fasted, while water remained available all the time. On the study day, mice were weighed, single-caged and allowed access to 500 mg of feed for 30 min, while water was removed. At the end of the […], remaining feed was removed and weighed. Then, the test compound/reference compound or its vehicle in the control group was administered subcutaneously. 60 min later, to allow the compound to reach relevant plasma exposure, a coloured, non-caloric bolus was instilled via gavage into the stomach. After another 30 min, the animals were sacrificed and the stomach and the small intestine prepared. The filled stomach was weighed, emptied, carefully cleaned and dried and reweighed. The stomach content, calculated as weight of filled subtracted by the weight of emptied stomach, indicated the degree of gastric emptying. The small intestine was straightened without force and measured in length. Then the distance from the gastric beginning of the gut to the tip of the farthest traveled intestinal content bolus was measured. The intestinal passage was given as ratio in percent of the latter distance and the total length of the small intestine. […] Statistical analyses were performed with Everstat 6.0 by 1-way-ANOVA, followed by Dunnett's as post-hoc test. Dunnett's Test was applied to compare versus vehicle control. Differences were considered statistically significant at the p<0.05 level.

[7] = system: female diet-induced obese (DIO) C57BL/6NCrl mice; experiment: Body weight in DIO mice, 14 weeks of prefeeding with high-fat diet (method 2); assay type: in vivo
Method: Female C57BL/6NCrl mice were housed in groups in a specific pathogen-free barrier facility on a 12 h light/dark cycle with free access to water and high-fat diet. After 14 weeks on high-fat diet, mice were stratified to treatment groups (n=8), so that each group had similar mean body weight.
An aged-matched group with ad libitum access to standard chow and water was included as standard control group.
Before the experiment, mice were subcutaneously (s.c.) injected with vehicle solution and weighed for 3 days to acclimate them to the procedures.
Body weight was recorded daily.
Statistical analyses were performed with Everstat 6.0 by repeated measures two-way ANOVA and Dunnett's post-hoc analyses (glucose profile) and 1-way-ANOVA, followed by Dunnett's post-hoc test (body weight, body fat). Differences versus vehicle-treated DIO control mice were considered statistically significant at the p<0.05 level.
Female obese C57BL/6NCrl mice were treated for 3 weeks once daily subcutaneously in the late afternoon, prior the end of the light phase (12 h lights on) with 10 μg/kg SEQ ID NO: 9 and SEQ ID NO: 21 or vehicle. Body weight was recorded daily.

[8] = Pharmacokinetic testing in mice, s.c.; settings: mouse, plasma, sc, 1 mg/kg
Method: Mice were dosed 1 mg/kg subcutaneously (s.c.). The mice were sacrified and blood samples were collected after 0.25, 0.5, 1, 2, 4, 8, 16 and 24 hours post application. Plasma samples were analyzed after protein precipitation via liquid chromatography mass spectrometry (LC/MS). PK parameters and half-life were calculated using WinonLin Version 5.2.1 (non-compartment model).

[9] = Solubility testing in buffer (HPLC-UV); settings: buffer

## CCCCCCCCCCCCCCCC(=O)N[C@@H](CCC(=O)NCCCC[C@H](NC(=O)[C@H](CCC(N)=O)NC(=O)[C@@H](NC(=O)[C@H](CO)NC(=O)[C@H](CC(C)C)NC(=O)[C@H](CC(=O)O)NC(=O)[C@H](CO)NC(=O)[C@@H](NC(=O)[C@H](Cc1ccccc1)NC(=O)[C@@H](NC(=O)CNC(=O)[C@H](CCC(=O)O)NC(=O)C(C)(C)NC(=O)[C@@H](N)Cc1ccc(O)cc1)[C@@H](C)O)[C@@H](C)O)[C@@H](C)CC)C(=O)N[C@@H](CCC(=O)O)C(=O)N[C@@H](CCCCN)C(=O)N[C@@H](CCCNC(=N)N)C(=O)N[C@@H](C)C(=O)N[C@@H](C)C(=O)NC(C)(C)C(=O)N[C@@H](CCC(=O)O)C(=O)N[C@@H](Cc1ccccc1)C(=O)N[C@H](C(=O)N[C@@H](CCC(=O)O)C(=O)N[C@@H](Cc1c[nH]c2ccccc12)C(=O)N[C@@H](CC(C)C)C(=O)N[C@@H](CCCCN)C(=O)N[C@@H](CC(N)=O)C(=O)N[C@H](C(=O)NCC(=O)N1CCC[C@H]1C(=O)N[C@@H](CO)C(=O)N[C@@H](CO)C(=O)NCC(=O)N[C@@H](C)C(=O)N1CCC[C@H]1C(=O)N1CCC[C@H]1C(=O)N1CCC[C@H]1C(=O)N[C@@H](CO)C(N)=O)[C@@H](C)O)[C@@H](C)CC)C(=O)O [SEQ ID NO: 9, Y-Aib-E-G-T-F-T-S-D-L-S-I-Q-K(γE-x53)-E-K-R-A-A-Aib-E-F-I-E-W-L-K-N-T-G-P-S-S-G-A-P-P-P-S-NH2] (H-Y[Aib]EGTFTSDLSIQK([γGlu-Palmitoyl])EKRAA[Aib]EFIEWLKNTGPSSGAPPPS-NH2)
[1]
  EC50: 5.7 pM
[2]
  Cmax: 278 ng/mL
  half-life: 12.2 h
[3]; 3 μg/kg s.c. (not significant, p=0.78)
  reduction of feed intake after 22 hours: 11%
[3]; 10 μg/kg s.c.
  reduction of feed intake after 22 hours: 62%
[4]
  EC50: 3.6 pM
[5]; pH 4.5
  Stability (pH 4.5): 92.5%
[5]; pH 7.4
  Stability (pH 7.4): 97.7%
[6]; 1 μg/kg s.c.
  increase of remaining gastric contents: 32%
  reduction of intestinal passage: 49%
[6]; 3 μg/kg s.c.
  increase of remaining gastric contents: 79%
  reduction of intestinal passage: 62%
[6]; 10 μg/kg s.c.
  increase of remaining gastric contents: 111%
  reduction of intestinal passage: 64%
[7]; 10 μg/kg s.c. once daily, 3 weeks
  decrease of body weight, relative change from baseline: up to 15.1%
[7]; 10 μg/kg, 3-week treatment, mean ± SEM
  Overall weight change: -6.2 ± 0.4 g
[8]
  Cmax: 5470 ng/mL
  half-life: 4.1 h
[9]; pH 4.5
  solubility at 2 h: > 1000 µg/mL
[9]; pH 7.4
  solubility at 2 h: > 1000 µg/mL
